Source: PubChem BioAssay AID651677 (The Scripps Research Institute Molecular Screening Center, 2012)
Calls of active or inactive are those of the source. No rule for the calls is given here.

Target: Perilipin-5 (Homo sapiens) + 1-acylglycerol-3-phosphate O-acyltransferase ABHD5 (Homo sapiens) (UniProt Q00G26+Q8WTS1)
Experiment: ABHD5-PLIN5 interaction inhibitors, dose response, biochemical, luminescence (AID 651677)

Sequence of Perilipin-5 (Homo sapiens) + 1-acylglycerol-3-phosphate O-acyltransferase ABHD5 (Homo sapiens) (Q00G26 whole entry, looked up): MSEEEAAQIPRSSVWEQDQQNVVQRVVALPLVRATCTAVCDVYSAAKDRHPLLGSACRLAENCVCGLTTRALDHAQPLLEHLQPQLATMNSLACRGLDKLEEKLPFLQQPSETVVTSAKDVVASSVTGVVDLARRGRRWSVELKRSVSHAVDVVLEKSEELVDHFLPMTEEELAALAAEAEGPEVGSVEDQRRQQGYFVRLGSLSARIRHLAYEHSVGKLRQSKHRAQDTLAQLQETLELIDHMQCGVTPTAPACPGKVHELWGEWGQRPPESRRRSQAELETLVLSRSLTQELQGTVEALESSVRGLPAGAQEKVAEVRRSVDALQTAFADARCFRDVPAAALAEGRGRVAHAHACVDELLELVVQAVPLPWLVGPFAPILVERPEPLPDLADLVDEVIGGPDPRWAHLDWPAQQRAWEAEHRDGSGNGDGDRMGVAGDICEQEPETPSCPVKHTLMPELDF
Sequence of Perilipin-5 (Homo sapiens) + 1-acylglycerol-3-phosphate O-acyltransferase ABHD5 (Homo sapiens) (Q8WTS1 whole entry, looked up): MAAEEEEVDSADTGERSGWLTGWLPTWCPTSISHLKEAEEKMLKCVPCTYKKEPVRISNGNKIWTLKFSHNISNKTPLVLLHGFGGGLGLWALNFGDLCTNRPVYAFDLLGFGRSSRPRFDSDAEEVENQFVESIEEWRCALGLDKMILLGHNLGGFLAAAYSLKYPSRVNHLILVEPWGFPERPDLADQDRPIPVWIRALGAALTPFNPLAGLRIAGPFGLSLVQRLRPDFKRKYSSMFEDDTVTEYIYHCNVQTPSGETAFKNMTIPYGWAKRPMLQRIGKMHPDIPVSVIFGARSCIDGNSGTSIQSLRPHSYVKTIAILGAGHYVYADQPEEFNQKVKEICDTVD

Compound | IC50
CC1Sc2ccc(S(=O)(=O)N3CCC(C(=O)NCc4ccc(Cl)cc4)CC3)cc2NC1=O (stereo unspecified) | inactive
Cc1cccc(NC(=O)CSc2nnc(-c3ccco3)c(-c3ccco3)n2)c1 | 1050 nM
CN(C)CCOC1(Cc2ccc(F)cc2)CCC(C(C)(C)C)CC1 (stereo unspecified) | 7330 nM
CC(C)(C)NC(=O)C(c1ccc(C(F)(F)F)cc1)n1c(=O)c(-c2ccco2)nc2ccccc21 (stereo unspecified) | 1330 nM
CCCCCNC(=O)C(c1ccc(C#N)cc1)n1c(=O)c(-c2ccco2)nc2ccccc21 (stereo unspecified) | 3150 nM
Cc1ccc(C)c(/C=C/C(=O)c2ccccc(=O)c2O)c1 | 4050 nM
O=C(Nc1ccc2c(c1)OCCO2)C(c1ccnc2ccccc12)n1c(=O)c(-c2ccco2)nc2ccccc21 (stereo unspecified) | inactive
CSc1nnc(NC(=O)c2nc(S(=O)(=O)Cc3ccccc3F)ncc2Cl)s1 | 2770 nM
CCOC(=O)N1CCN(C(=O)C[C@@H]2C[C@@]3(C(=O)OCC)CCC=C3N(Cc3ccc(Cl)cc3Cl)C2=O)CC1 | inactive
COc1cc(C(C)=O)ccc1OCc1cn(CC(=O)c2ccc(O)cc2)nn1 | 4430 nM
CC(C)(C)NC(=O)C(c1cccc2ccccc12)n1c(=O)c(-c2ccco2)nc2ccccc21 (stereo unspecified) | 2390 nM
CCCCC(=O)NC(c1cccc([N+](=O)[O-])c1)c1ccc2cccnc2c1O (stereo unspecified) | > 39800 nM (inactive)
CC1(C)C2CCC(CN=C(N)CSS(=O)(=O)O)C1C2 (stereo unspecified) | 4270 nM
CCN(CC)CCOc1ccc(/C(=C(\Cl)c2ccccc2)c2ccccc2)cc1 | 2470 nM
COc1ccccc1/C=C/C(=O)c1ccccc1 | 6630 nM
O=C1C(=O)c2c(C(=O)c3ccccc3)coc2-c2ccccc21 | 2930 nM
CCCNC(=O)Nc1ccc2c(c1)N(C)C(=O)c1ccccc1S2 | 8610 nM
FC(F)(F)c1cccc(NC(=S)N(CCCN2CCCC2)Cc2cccn2Cc2ccc(Cl)cc2)c1 | inactive
O=C(NCc1ccccc1)C(C1CC1)n1c(=O)c(-c2ccco2)nc2ccccc21 (stereo unspecified) | 7200 nM
C#CCOCCOCCOCCNc1nc(N2CCN(C(=O)CCCCCCCCCCNC(=O)[C@@H](CCSC)n3cc(CCO)nn3)CC2)nc(N2CCN(C(=O)CCCCCCCCCCNC(=O)[C@@H]([C@H](C)O)n3cc(C)nn3)CC2)n1 | > 39800 nM (inactive)
Oc1c(C(c2ccccc2)N2CCCCC2)ccc2ccccc12 (stereo unspecified) | 845 nM
CCN(CC)CCNC(=O)c1ccc(NC(=O)c2cn(-c3ccccc3)nc2-c2cccs2)cc1 | inactive
CSc1nnc(NC(=O)c2nc(S(=O)(=O)Cc3ccccc3)ncc2Cl)s1 | 3830 nM
CC(C)(C)NC(=O)C(C1CC1)n1c(=O)c(-c2ccco2)nc2ccccc21 (stereo unspecified) | 2740 nM

Compound | IC50
Cc1cccc(C)c1NC(=O)C(c1ccncc1)n1c(=O)c(-c2ccco2)nc2ccccc21 (stereo unspecified) | inactive
CCCCCNC(=O)C(c1ccc(OC)cc1)n1c(=O)c(-c2ccco2)nc2ccccc21 (stereo unspecified) | 2180 nM
Cc1nc(-c2ccccc2)sc1C(=O)/C=C/c1ccccc1 | 2790 nM
CC1=CC(C)(C)Nc2ccc(OC(=O)CN3C(=O)C4CCCCC4C3=O)cc21 (stereo unspecified) | 2500 nM
CCOC(=O)c1c(C)oc2c1c(CN1CCN(CCO)CC1)c(O)c1ccccc12 | 1810 nM
COc1ccc(/C=C/C(=O)c2cc(F)ccc2OC(=O)c2ccc(OC)c(OC)c2)cc1OC | 2740 nM
O=C(/C=C/c1ccc(NC(=O)c2ccccc2-c2ccccc2C(=O)O)cc1)c1ccccc1 | 7140 nM
COc1cc(/C=C/C(=O)c2ccc(Cl)s2)cc(OC)c1O | 4480 nM
C=CC(=O)N1c2ccccc2Sc2ccc(NC(=O)OCC)cc21 | 6060 nM
Cc1ccc2sc(N(CCCN(C)C)C(=O)CN3C(=O)c4ccccc4C3=O)nc2c1C | inactive
CCC(C(=O)OCCN(CC)CC)c1ccccc1 (stereo unspecified) | 2550 nM
O=C(Nc1ccc2c(c1)OCCO2)C(c1ccccc1F)n1c(=O)c(-c2ccco2)nc2ccccc21 (stereo unspecified) | inactive
c1ccc(CCC2=NCCn3cccc32)cc1 | inactive
COc1ccc(NC(=O)C(c2ccc(C#N)cc2)n2c(=O)c(-c3ccco3)nc3ccccc32)cc1 (stereo unspecified) | 8620 nM
Cc1cccc(C)c1OCc1cn(CC(=O)c2ccc(O)cc2)nn1 | 2830 nM
COc1ccc(C(C(=O)Nc2ccc3c(c2)OCCO3)n2c(=O)c(-c3ccco3)nc3ccccc32)cc1 (stereo unspecified) | 7560 nM
CC(C)(C)NC(=O)C(c1ccccc1F)n1c(=O)c(-c2ccco2)nc2ccccc21 (stereo unspecified) | 2280 nM
O=C(NC1CCCCC1)C(c1cccc2ccccc12)n1c(=O)c(-c2ccco2)nc2ccccc21 (stereo unspecified) | 940 nM
COc1cc(OC)cc(C(=O)NC(=S)N(Cc2ccccc2)C(C)C)c1 | inactive
CCOC1=CC2=C(C(=O)C(Cl)=CC2=O)[C@@H]2CN(S(=O)(=O)c3ccc(C)cc3)[C@@H](c3ccccc3)[C@H]12 | 941 nM
COc1ccc(NC(=O)c2cc3ccccc3cc2O)cc1 | 9050 nM
COc1cc(C)c2sc3ccccc3c(=O)c2c1NCCN(C)C | 3840 nM
O=C(NC1CCCCC1)C(c1cc2ccccc2o1)n1c(=O)c(-c2ccco2)nc2ccccc21 (stereo unspecified) | 1360 nM
CCCCn1c(SCC(=O)NCc2ccco2)nnc1-c1ccoc1C | 4820 nM

Compound | IC50
CC(c1nc2ccccc2[nH]1)n1c(=O)c(-c2ccco2)nc2ccccc21 (stereo unspecified) | 2760 nM
NC(=O)C(C(=O)/C=C/c1ccc(Cl)cc1)=C1SCCS1 | inactive
Cc1ccc(S(=O)(=O)N2C[C@H]3n4c(=O)ccc(=O)n4C[C@H](OC(=O)Nc4cccs4)[C@@]3(O)C2)cc1 | 7930 nM
CC(=O)Cc1cc(O)c2ccccc2c1OC(=O)c1ccccc1 | 1960 nM
C=C1C(=O)O[C@H]2C[C@H]1[C@@H](OC(C)=O)C/C(C)=C/CC/C(C)=C\CC[C@]2(C)O | 1910 nM
CCCCCCC=C1CCC(CN2CCCC2)C1=O (stereo unspecified) | 1940 nM
COC/C=C/C1=CC2=CC(=O)C(C)(OC(=O)C3CCCC3)C(=O)C2=CO1 (stereo unspecified) | 1750 nM
O=c1[nH]c(C2CCN(S(=O)(=O)c3ccc(F)cc3)CC2)nc2c1nnn2Cc1ccc2c(c1)OCCO2 | inactive
Cc1ccc(C(=O)c2coc3c2C(=O)C(=O)c2ccccc2-3)cc1 | 2530 nM
CCSc1ccc2c(c1)N(CCCN1CCN(C)CC1)c1ccccc1S2 | 5860 nM
O=C(NC1CCCCC1)C(c1ccccc1F)n1c(=O)c(-c2ccco2)nc2ccccc21 (stereo unspecified) | 1260 nM
C=C[C@]1(C)C[C@@H](OC(=O)CSCCN(CC)CC)[C@]2(C)C(C)CC[C@]3(CCC(=O)[C@H]32)[C@@H](C)[C@@H]1O (stereo partly specified) | 8040 nM
O=c1[nH]c(C2CCN(S(=O)(=O)c3ccc(S(=O)(=O)NC4CC4)cc3)CC2)nc2c1nnn2Cc1ccc(F)cc1 | 5660 nM
CC(CCc1ccco1)NC(=O)CCc1nnc2ccc(NCc3ccccc3Cl)nn12 (stereo unspecified) | 8970 nM
CN(C)c1ccc(Cc2cc3c(O)ccc(O)c3cc(Cc3ccc(N(C)C)cc3)c2=O)cc1 | 1990 nM
CC1CCN(S(=O)(=O)c2ccc(NC(=O)Cc3cccs3)cc2)CC1 | inactive
Cc1ccc(O)c(C(=O)/C=C/c2ccc3c(c2)OCCCO3)c1 | 4130 nM
COc1cccc2sc(N(CCCN(C)C)C(=O)COc3ccc(Cl)cc3)nc12 | inactive
CCOC(=O)C1C(OC(=O)c2ccccc2)CC2CCC1N2C (stereo unspecified) | 9390 nM
Cc1cccc(C)c1NC(=O)C(c1ccccc1)n1c(=O)c(-c2ccco2)nc2ccccc21 (stereo unspecified) | 5190 nM
Cc1oc2c(c1C(=O)c1ccc(Cl)cc1)C(=O)C(=O)c1ccccc1-2 | 1980 nM
O=C1NC(=S)NC(=O)C12C(c1ccccc1)NC(=S)NC2c1ccccc1 (stereo unspecified) | 4390 nM
O=C(Nc1ccc(Cl)cc1)/C(=C/c1cccc(O)c1)c1nc2ccccc2s1 | 2100 nM
